# From patent US20240197756A1, “METHODS OF TREATMENT WITH NEUROACTIVE STEROIDS” (priority 2021, published 2024)
# “Also recorded” adds a separate entry of the source. Where two headings read alike, the source gives them in different places.
# Tests used:
# GABAA receptors = assay: Pre-clinical qEEG beta power and animal models of anxiety and depression; format: in vivo; settings: pre-clinical studies
# [1] = Example 3 Part A: oral suspension administered at 4 p.m. vs 8 p.m., plasma pharmacokinetics; format: in vivo, human; settings: for AUCinf / Cmax / AUC(0-inf) / Tmax / half-life: human, in vivo; for AUCinf / Cmax / AUC(0-inf) / Tmax: po; for AUC(0-inf): AUCinf
# Procedure: Patients with severe major depressive disorder (MDD) aged 18 to 65 years were treated with an oral suspension or tablet of Compound 1 to study the effect of food and time of administration on the pharmacokinetics, as well as the safety and tolerability of these formulations.
# Part A is an open-label, non-randomized, fixed-sequence crossover design to evaluate Compound 1 at 2 different administration times (4 p.m., approximately 4 hours after lunch and 2 hours prior to dinner, and at 8 p.m., approximately 4 hours after dinner). 16 participants were administered an oral suspension of Compound 1.
# Preliminary pharmacokinetics data from Part A, where 45 mg and 60 mg of oral suspension were administered (Cohort 1), and Part C, where 40 mg (2×20 mg), 60 mg (3×20 mg) and 80 mg (4×20 mg) of the tablet formulation were administered, have been analyzed and are summarized below.
# [2] = Safety and tolerability in MDD patients (Part A); format: in vivo, human; settings: 80 mg once daily for 14 days in MDD patients
# Procedure: (§1) In Part A, participants were administered daily doses of Compound 1 (45 mg Cohort and 80 mg Cohort) at 4 p.m. on Day 1 and qHS on all other study days for 7 days inpatient followed by 7 days outpatient (with subsequent Cohorts receiving up to 120 mg qHS). Participants checked into the clinic on Day 1. During this period the following assessments were performed: adverse event assessments, vital signs, physical examinations, blood and urine samples for safety assessments, ECGs, C-SSRS assessments, blood samples for PK, and efficacy assessments (HAM-D, MADRS, HAM-A, CGI [CGI-S and CGI-I], PSQI, and SDQ). Baseline assessments occurred on Day 1 prior to administration of study drug. On Day 8, prior to discharge, participants were supplied with sufficient Compound 1 to complete 7 days of dosing.
# [3] = test system: patients with severe major depressive disorder (MDD); assay: Open-label study in severe MDD, Part A efficacy (HAM-D); format: in vivo, human; settings: for patients meeting the HAM-D Response or Remission criteria: Day 15
# Procedure: The study is an open-label, study comprised of two dosing periods, Part A and Part B, during which patients were treated with an oral suspension of Compound 1. Part A was an open-label assessment of two dose levels of Compound 1 (45 mg qHS Cohort 1 and 80 mg qHS Cohort, i.e., once daily administration at bedtime) administered for 7 days inpatient followed by 7 days outpatient. Compound 1 was administered at 4 p.m. on Day 1 in order to collect post-dosing PK samples that could not be collected with qHS dosing.
# as §1
# Patients were administered daily doses of Compound 1 for 7 days inpatient followed by 7 days outpatient.
# In the 45 mg Cohort, patients were administered once daily dose of 45 mg of Compound 1 at bedtime for 7 days inpatient followed by once daily dose of 45 mg of Compound 1 at bedtime for 7 days outpatient.
# In the 80 mg Cohort, patients were administered once daily dose of 80 mg of Compound 1 at bedtime for 7 days inpatient followed by once daily dose of 80 mg of Compound 1 at bedtime for 7 days outpatient.
# Part A: In Part A, HAM-D, MADRS, HAM-A, CGI-S, and CGI-I values were collected in the morning of Days 1, 2, 3, 4, 5, 6, 7, 8, 15, 21 and 28. PSQI and SDQ values will be collected on Days 1, 8, 15, 21 and 28. Part B: In Part B, HAM-D, MADRS, HAM-A, CGI-S, CGI-I, PSQI and SDQ values will be collected on the days described for Part A.
# HAM-D Response was defined as a reduction from baseline of ≥50% in total HAM-D score. HAM-D remission was defined as a total HAM-D score of ≤7.
# Efficacy analysis: For both parts of the clinical trial, the HAM-D total score and change from baseline values will be summarized by treatment group and time point. In addition, the change from baseline in HAM-D total score will also be analyzed using paired t-tests or similar methods. The null hypothesis of this test is that the mean difference in HAM-D total score between paired observations (i.e., pre- and post-treatment) is zero. Similar analysis methods will be used for all secondary and exploratory efficacy variables.
# [4] = Safety and tolerability in the multiple escalating dose study in healthy subjects; format: in vivo, human
# Procedure: Adverse events (AEs) were monitored throughout the duration of the study.
# To monitor for possible AEs, vital signs, hematology and clinical chemistry laboratory parameters, ECG readings, neurological examination findings, and EEG parameters and abnormal findings were recorded at each visit.
# [5] = Multiple escalating dose study, plasma pharmacokinetics of oral suspension (Cohorts 1-3); format: in vivo, human
# Procedure: Healthy subjects aged 18 to 55 years were treated with an oral suspension of Compound 1 to study the safety, tolerability, pharmacokinetics and pharmacodynamics of Compound 1 in healthy subjects.
# The study was a randomized, double-blind, placebo-controlled multiple escalating dose study comprised of 3 cohorts that each received an oral suspension. Each cohort consisted of two groups: one group treated with Compound 1 and another treated with placebo. In each cohort, the ratio of Compound 1-treated subjects to placebo-treated subjects was 3:1.
# The Compound 1-treated subjects of Cohort 1 were treated with 15.0 mg of Compound 1 once per day (QD). The Compound 1-treated subjects of Cohort 2 were treated with 30.0 mg of Compound 1 QD. The Compound 1-treated subjects of Cohort 3 were treated with 60.0 mg of Compound 1 QD.
# Patients in each cohort were treated with Compound 1 for 14 consecutive days, unless dosing was halted by the Safety Review Committee (SRC). The dosing of subjects in each of the cohorts was staggered with the decision to dose escalate based on SRC review of a minimum of 14 days of observation of safety and tolerability data and review of the available plasma PK data from the preceding cohort(s). Thus, dose escalation was predicated on tolerability of the prior cohorts.
# Compound 1 was administered under fasted conditions (no food or drink, except water, for at least 10 hours prior to dosing). Immediately after administration of Compound 1, the subject was be administered 240 mL water. No additional fluid intake was allowed until 1 hour after Compound 1 administration.
# Cohort 1 subjects received a single 15.0 mg dose of a Compound 1 suspension on the morning of Days 1-14. Cohort 2 subjects received a single 30.0 mg dose of a Compound 1 suspension on the morning of Days 1-14. Cohort 3 subjects received a single 60.0 mg dose of a Compound 1 suspension on the morning of Days 1-14. For all cohorts, the last treatment was administered on the morning of Day 14.
# Data were obtained from the blood plasma samples collected from each cohort according to the schedule provided.
# Plasma samples were analyzed to determine Compound 1 concentrations using a validated assay method. Pharmacokinetic variables (including but not limited to Cmax, Tmax and AUC(0-last)) were calculated using non-compartmental analysis. PK parameters for Compound 1 were derived from the plasma concentration data using non-compartmental analysis with Phoenix™ WinNonlin® v 8.0 (Pharsight Corporation, USA).
# Blood (Cohorts 1-3): For each cohort, blood samples were collected on Days 1, 2, 3, 4, 5, 6 and 14 at the following time points: Day 1 at pre-dose (0 hour), 0.25, 0.5, 0.75, 1, 1.5, 2, 2.5, 3, 4, 6, 8, 12, 16 h post-dose; Day 2 at pre-dose (24 hours), Day 3 at pre-dose (48 hours), Day 4 at pre-dose (72 hours), Day 5 at pre-dose (96 hours), Day 6 at pre-dose (120 hours); Day 14 at pre-dose 0.25, 0.5, 0.75, 1, 1.5, 2, 2.5, 3, 4, 6, 8, 12, 16, 24, 36, 48, and 72 hours. Trough level blood samples were collected on Days 2, 3, 4, 5, 6 and 14, prior to the morning dose administrations.
# Descriptive statistics were calculated for plasma and urine PK parameter and concentration data and summarized by study day and time point. Arithmetic means, coefficient of variation (CV), standard deviation, median, minimum, and maximum values, and number of observations were calculated for all PK parameters and trough concentration data. Except for Tmax, the geometric mean, geometric standard deviation, and geometric CV were provided for all PK parameter and concentration data.
# [6] = test system: extrasynaptic form of GABAA receptors; assay: PAM selectivity for extrasynaptic vs synaptic GABAA receptors
# [7] = oral suspension 45 mg and 60 mg
# [8] = Cohorts 1-3, 15-60 mg QD for 14 days
# [9] = Cohort 1 (15.0 mg QD), Day 14 steady state, Geo Mean
# [10] = Cohort 1 (15.0 mg QD), Day 14 steady state, Mean
# [11] = Cohort 1 (15.0 mg QD), Day 14 steady state, Median
# [12] = Cohort 2 (30.0 mg QD), Day 14 steady state, Geo Mean
# [13] = Cohort 2 (30.0 mg QD), Day 14 steady state, Mean
# [14] = Cohort 3 (60.0 mg QD), Day 14 steady state, Geo Mean
compound,measurement,setting,value
"COC[C@@]1(O)CC[C@@]2(C)[C@@H](CC[C@@H]3[C@@H]2CC[C@]2(C)[C@@H](C(=O)Cn4ccnc4)CC[C@@H]32)C1 [Compound 1, 3α-Hydroxy-3β-methoxymethyl-21-(1′-imidazolyl)-5α-pregnan-20-one]",increase in beta power associated with robust activity in animal models of anxiety and depression,GABAA receptors,1.6 fold
same,AUCinf,[1]; 45 mg,1880 ng·h/mL
same,Cmax,[1]; 45 mg,157 ng/mL
same,AUC(0-inf),[1]; 45 mg,1800 ng·h/mL
same,Cmax,"[1]; 45 mg, Cmax",207 ng/mL
same,Tmax,[1]; 45 mg,1.5 h
same,AUCinf,[1]; 60 mg,2930 ng·h/mL
same,Cmax,[1]; 60 mg,249 ng/mL
same,AUC(0-inf),[1]; 60 mg,2800 ng·h/mL
same,Cmax,"[1]; 60 mg, Cmax",282 ng/mL
same,Tmax,[1]; 60 mg,1.5 h
same,half-life,"[1]; oral suspension 45 mg and 60 mg, 4 p.m. and 8 p.m., range, read-out: Mean t1/2",11.1 to 12.6 h
same,half-life,"[1]; oral suspension 60 mg 4 PM (4 h after lunch, 2 h before dinner), N = 15, Mean, read-out: t1/2 (converted)",12 h
same,t1/2,"[1]; oral suspension 45 mg 4 PM (4 h after lunch, 2 h before dinner), N = 16, Mean",12.6 h
same,t1/2,"[1]; oral suspension 45 mg 8 PM (4 h after dinner), N = 15, Mean",11.3 h
same,Cmax at 8 p.m. as compared to 4 p.m.,[1]; [7],reduced
same,tmax at 8 p.m. as compared to 4 p.m.,[1]; [7],delayed
same,AUCinf between the 2 administration times,"[1]; oral suspension 45 mg and 60 mg, 4 p.m. vs 8 p.m.",comparable
same,t1/2,"[1]; oral suspension 60 mg 8 PM (4 h after dinner), N = 15, Mean",11.1 h
same,first post-dose timepoint with appearance of concentrations,[1]; suspension at 4 p.m. or 8 p.m.,0.25 h
same,last evaluated timepoint at which concentrations remained detectable,[1]; suspension at 4 p.m. or 8 p.m.,72 h
same,mean concentrations following administration at 4 p.m. as compared to 8 p.m.,"[1]; within the first 2 to 3 hours, 45 mg and 60 mg",higher
same,tolerability,[2],well tolerated with no change in Adverse Event profile; also recorded: well-tolerated
same,patients meeting the HAM-D Response or Remission criterion,"[3]; 45 mg Cohort (qHS), Day 7",11 of the 13
same,patients meeting the HAM-D Response or Remission criteria,[3]; 45 mg Cohort (qHS),8 of the 13
same,patients meeting the HAM-D Response or Remission criteria,[3]; 80 mg Cohort (qHS),6 of the 7
same,Efficacy (reduction Mean Change from Baseline in HAM-D score),[3]; as monotherapy (no background antidepressant) and in combination with another antidepressant,observed
same,symptoms of MDD,[3]; daily dose of 45 mg or 80 mg,reduced symptoms of moderate to severe MDD
same,Efficacy (reduction Mean Change from Baseline in HAM-D score),[3]; patients in first course of antidepressant treatment and patients that failed previous courses,observed
same,Serious Adverse Events,[4]; [8],no Serious Adverse Events
same,"vital sign, ECG, or lab abnormalities",[4]; [8],"no clinically relevant vital sign, ECG, or lab abnormalities"
same,maximum tolerated dose and serious adverse events,"[4]; MAD study, after a dose of 60 mg, beta power increase up to 2.8-fold",without achieving a maximum tolerated dose (MTD) or demonstrating any serious adverse events (SAEs)
same,accumulation factor of the dosing interval (ratio of AUCDay14/AUCDay1),[5]; Cohort 1 (15 mg QD) and Cohort 2 (30 mg QD),approximately 1.25
same,CLss/F,[5]; [9],30.497 L/h
same,t1/2,[5]; [9],14.613 h
same,CLss/F,[5]; [10],31.415 L/h
same,t1/2,[5]; [10],14.772 h
same,AUCinf,[5]; [11],595.2 ng·h/mL
same,CLss/F,[5]; [11],30.41 L/h
same,CLss/F,[5]; [12],30.178 L/h
same,t1/2,[5]; [12],12.647 h
same,CLss/F,[5]; [13],30.949 L/h
same,t1/2,[5]; [13],12.701 h
same,CLss/F,"[5]; Cohort 2 (30.0 mg QD), Day 14 steady state, Median",30.12 L/h
same,accumulation factor of the dosing interval (ratio of AUCDay14/AUCDay1),[5]; Cohort 3 (60 mg QD),0.89
same,CLss/F,[5]; [14],30.398 L/h
same,t1/2,[5]; [14],12.164 h
same,CLss/F,"[5]; Cohort 3 (60.0 mg QD), Day 14 steady state, Mean",32.142 L/h
same,CLss/F,"[5]; Cohort 3 (60.0 mg QD), Day 14 steady state, Median",28.45 L/h
same,AUC0-tau,"[5]; human, in vivo, 60 mg",2356.80 ng·h/mL
same,steady state clearance,"[5]; human, in vivo, 60 mg",approximately 31 L/hour
same,absorption,"[5]; in vivo, po",rapid absorption
same,selectivity as PAM of the extrasynaptic form of GABAA receptors compared to the synaptic form,[6],approximately 10 fold
